Results reported in patent US20090156565A1, “COMPOSITION AND USE THEREOF IN ENHANCING A THERAPEUTIC EFFECT OF AN ANTIEPILEPTIC DRUG” (priority 2004, published 2009).
Where two headings read alike, the source gives them in different places.

Assays:
[1] = system: maximal electricroshock-induced seizures; settings: cited from earlier work; for protective activity of clonazepam against maximum electroshock: co-administration
[2] = system: status epilepticus; test: Mifepristone given 15 minutes after onset of SE, diazepam after 1 hour, hourly monitoring for behavioral seizures; format: in vivo, rats; settings: for rats that stopped seizing: 5 and 6 hours after DZ treatment
Protocol: In this experiment, mifepristone was given 15 minutes after onset of SE, but prior to administering the first dose of diazepam (DZ). Diazepam (7.5 mg/kg) was given after 1 hour of onset of SE. After DZ treatment, rats were monitored hourly for behavioral seizures.

[3] = system: pilocarpine induced status-epilepticus; test: Pilocarpine induced status-epilepticus in rats, mifepristone pretreatment, single diazepam dose, behavioral seizures (Racine stage); format: in vivo; settings: not pretreated with mifepristone; single diazepam dose 7.5 mg/kg given 30 minutes after status-epilepticus; n=5
[4] = system: pilocarpine induced status-epilepticus; test: Pilocarpine induced status-epilepticus in rats, mifepristone pretreatment, repeated diazepam doses until seizures stop; format: in vivo, Adult male Sprague-Dawley rats; settings: for cumulative diazepam dose required to stop behavioral seizures (mean ±SEM): diazepam 6 mg/kg 1 h after SE, then 3 mg/kg every two hours
Protocol: Mifepristone is a yellow powdery substance and is available commercially (Sigma, St. Louis, Mo.). Adult male Sprague-Dawley rats were implanted with electrodes in CA1 and frontal cortex. After one week of recovery, rats were put in recording cages and connected to EEG monitoring system for continuous video-EEG recording. Rats were then treated with mifepristone (25 mg/kg body weight) one hour before the pilocarpine injection. Thirty minutes later rats were treated with scopalamine (1 mg/kg body weight) to reduce peripheral side effects of pilocarpine. Rats were injected with pilocarpine (385 mg/kg body weight) 30 minutes after the scopalamine injection to induce status-epilepticus. One hour after declared status-epilepticus, rats were treated with diazepam (6 mg/kg) to stop the seizures. Every two hours rats were monitored for signs of behavioral seizures and if required they were injected with 3 mg/kg diazepam until they completely stop seizing. The process was repeated until the rats completely stopped seizing. […] This example was presented by inventors in an article titled “Effects of Glucocorticoid Receptor Activity on Diazepam Efficacy in Terminating Status-Epilepticus in Adult Rats,” Epilepsia Vol. 45, Suppl. 7, page 146, October, 2004.
The histogram represents mean (±SEM) cumulative diazepam dose (mg/kg body weight) required to stop behavioral seizures.

[5] = system: pilocarpine induced status-epilepticus; test: EEG (cortex and hippocampus) 24 hours after pilocarpine injection; format: in vivo; settings: rats that received mifepristone versus rats without treatment

For CC(=O)O[C@]1(C(C)=O)CC[C@H]2[C@@H]3C=C(Cl)C4=CC(=O)[C@@H]5C[C@@H]5[C@]4(C)[C@H]3CC[C@@]21C [CYP, cyproterone acetate], the “protective activity of clonazepam against maximum electroshock” value ([1]; male mice) is given as “improved”.

For CC/C(=C(\c1ccccc1)c1ccc(OCCN(C)C)cc1)c1ccccc1 [TXF, tamoxifen], the “protective activity of clonazepam against maximum electroshock” value ([1]; female mice) is listed as “improved”.

For CN1C(=O)CN=C(c2ccccc2)c2cc(Cl)ccc21 [diazepam], the “rats that stopped seizing” value ([2]; diazepam 7.5 mg/kg, rats not receiving mifepristone) was 33%, the “rats that stopped seizing by 4 hours” value [3] was 1/5 and the “cumulative diazepam dose required to stop behavioral seizures (mean ±SEM)” value ([4]; rats that did not receive mifepristone, ±0.5, n=20) was 10.2 mg/kg.

In the case of CC#C[C@]1(O)CC[C@H]2[C@@H]3CCC4=CC(=O)CCC4=C3[C@@H](c3ccc(N(C)C)cc3)C[C@@]21C [mifepristone, 17-beta-hydroxy-11-beta-(4-dimethyl-aminophenyl)-17-alpha(1-propynyl)-estra-4,9-dien-3-one], the “effect on protective action of antiepileptic drugs against maximal electroshock-induced seizures” value ([1]; in combination with clonazepam, carbamazepine, phenobarbital, mice) is given as “failed to affect their protective action”, the “effect on electrically-induced seizures” value ([1]; used alone, mice) is given as “no effect” and the “frequency of spike-wave discharges and seizure recurrence” value [5] is given as “lower frequency of spike-wave discharges and seizure recurrence”. The “rats that had stopped seizing, compared to rats that did not receive mifepristone” value ([2]; 3 to 6 hours after DZ treatment, mifepristone 15 minutes after onset of SE, diazepam 7.5 mg/kg 1 hour after onset) was “significantly more”, the “rats that stopped seizing” value ([2]; mifepristone 15 minutes after onset of SE plus diazepam 7.5 mg/kg, p<0.018, Kaplan-Meier) was 100% and the “lower cumulative diazepam dose to terminate behavioral seizures compared to rats not pretreated with mifepristone” value ([4]; mifepristone pretreatment before pilocarpine, P<0.0005) was 26.5%. For the same compound, the “cumulative diazepam dose required to stop behavioral seizures (mean ±SEM)” value ([4]; rats pretreated with mifepristone 25 mg/kg one hour before pilocarpine, ±0.41, n=14, p<0.0005) was 7.5 mg/kg.
